Data as given in US10752921B2, “Enzymes and methods for styrene synthesis” (Phytogene, Inc., priority 2012, dated 2020).
Entries after “also recorded” stand apart in the source; their conditions may differ.

Tests used:
[1] = biological target: T1, FDC1 (Saccharomyces cerevisiae, UniProt Q03034); assay: Substrate specificity of FDC1; assay type: biochemical; details: 0.2 mM substrate, 0.5 mg purified FDC1, 5 minutes at 30° C., pH 6.5
T1 construct: N-terminal 6xHis leader of vector pDEST17 (own knowledge of the vector); made in house; host or cells: E. coli BL21 (DE3)
T1 sequence (Q03034 1-503): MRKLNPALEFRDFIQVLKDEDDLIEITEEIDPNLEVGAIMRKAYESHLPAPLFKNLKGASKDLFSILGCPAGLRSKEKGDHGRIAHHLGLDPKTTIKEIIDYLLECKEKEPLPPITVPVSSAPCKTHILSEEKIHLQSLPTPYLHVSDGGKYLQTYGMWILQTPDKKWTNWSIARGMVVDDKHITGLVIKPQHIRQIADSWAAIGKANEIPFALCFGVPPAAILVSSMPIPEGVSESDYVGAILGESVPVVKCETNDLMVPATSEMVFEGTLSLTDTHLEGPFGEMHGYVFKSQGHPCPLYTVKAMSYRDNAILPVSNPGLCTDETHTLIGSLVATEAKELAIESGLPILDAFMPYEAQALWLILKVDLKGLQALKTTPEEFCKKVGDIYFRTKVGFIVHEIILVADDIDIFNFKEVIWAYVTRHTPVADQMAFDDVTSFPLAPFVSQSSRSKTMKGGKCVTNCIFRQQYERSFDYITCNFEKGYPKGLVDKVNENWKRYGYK
Experimental: The reaction mixtures were then incubated for 5 minutes at 30° C. After the reaction 1 mL of propanol was added to the reaction mixtures to solubilize styrene. The experimental negative control used the same conditions except the reaction mixture contained no substrate.

[2] = biological target: T1, FDC1; assay: Effect of metal ions on FDC1 activity; assay type: biochemical; details: 10 mM metal ion, 1.4 mM tCA, purified FDC1, 5 minutes at 30° C.
Experimental: (§1) After the reaction, 1 mL of propanol was added to the reaction mixtures to solubilize styrene. The experimental control used the same conditions except the reaction mixture contained no metal ions. The experimental negative control used the same conditions except the reaction mixture contained no substrate.
as §1, with “ions or EDT A.” for “ions.”

[3] = system: styrene production; assay: Fermentation of E. coli with PAL2-FDC fusion with or without srpABC pump, Phe as substrate; assay type: cell-based; details: control contains only the fusion of PAL2 and FDC
From the text: Some bacteria have developed multiple mechanisms to adapt unfavorable conditions. For example, Pseudomonas strains have about three strategies for addressing organic solvent toxicity, i.e. modified membrane structure, active efflux pumps, and enzymatic detoxification. Here, a recombinant E. coli host expressing an efflux pump (called solvent-resistant-pump) was produced. The pump, a member of the ABC-transporter family, is composed of three subunits, srpA, periplasmic linker; srpB, inner membrane transporter; and srpC, out-membrane channels. The full-length of the srpABC pump sequence (˜6 kb) was cloned from the genomic DNA of P. putida. The clone was first inserted to pENTR vector with Zeocin resistance and then to E. coli expression vector pCONA-2-DEST with Kanamycin resistance.
Finally, the pump was transformed to the E. coli strain BL21 (DE3) containing the fusion of PAL2 and FDC which is resistant to Ampicillin. After the test expression of 5 clones in flasks, one clone was chosen for further experiment with fermenter. Fifty milliliters of overnight culture were inoculated in 1.5 L LB medium containing appropriate antibiotics. When cells reach an OD600˜0.8, 5 mM of IPTG was added to the culture for induction. […] Samples from the overnight fermentation (˜16 hrs) were taken and analyzed by HPLC in coupling with an Acclaim RSLC C18 column and detected at 280 nm. […]

[4] = biological target: T1, FDC1; assay: Temperature stability of FDC1; assay type: biochemical
Experimental: After incubation at various temperatures, an aliquot of protein (42 mg) was added to 25 mM potassium phosphate buffer pH 6.5, 5 mM DTT, and 1.4 mM tCA to a final volume of 1 mL. The reaction mixtures were incubated for 8 minutes at 30° C. The styrene was extracted with 250 μl butanol and quantified by HPLC using C18 column. The experimental negative control used the same conditions except the reaction mixture contained no substrate. The enzyme was stable at 50° C. (FIG. 7).
After the protein was incubated for various times, an aliquot (42 mg) was added to 25 mM potassium phosphate buffer pH 6.5, 5 mM DTT, and 1.4 mM tCA to a final volume of 1 mL. The reaction mixtures were then incubated for 8 minutes at 30° C. Styrene was extracted by adding 250 μL butanol to the reaction mixtures and quantified by HPLC. The experimental negative control used the same conditions except the reaction mixture contained no substrate. The protein was stable at 50° C. for 2 hr (FIG. 8).

[5] = biological target: T1, FDC1; assay: pH stability of FDC1; assay type: biochemical; details: incubated for 30 minutes at pH 6.0 prior to the reaction
Experimental: The protein (crude extract, 586 μL) was added to 112 μL of 500 mM buffers at pH values of 5, 6, 7, 8, 9, 10, and 11, and incubated at 30° C. for 30 minutes. After treated in various pH buffers, an aliquot of protein (42 mg) was added to a final concentration of 100 mM potassium phosphate buffer pH 6.5, 5 mM DTT, 1.4 mM cinnamic acid and brought up to a final volume of 2 mL. The reaction mixture was then incubated for 8 minutes at 30° C. The styrene was extracted by the addition of 250 μL butanol. The experimental negative control used the same conditions except the reaction mixture contained no substrate. […] This protein is stable and active in a wide range of pH and can be used for industrial production of styrene.

[6] = system: styrene production; assay: Expression of FDC-PAL2 fusion protein in E. coli, styrene in medium; assay type: cell-based; details: expressed in E. coli
From the text: Artificial channels were included in the styrene production. To construct the fusion protein of PAL2 and FDC using Gateway technology, four primers were designed for PCR amplification. […] The FDC gene (˜1.5 kb) and the PAL2 gene (2.2 kb) were amplified using the above primers and cloned into the Gateway vector pDEST17. The constructs of the fusion protein of PAL2 and FDC were transformed to BL21(DE3). Fusion proteins of FDC mutant and PAL also can be obtained by the above process.
This fusion protein produced styrene at an amount that was about 6-fold higher than that of FDC expressing in E. coli (95 mg/Lin medium). This amount of styrene was also much higher than that of non-fused proteins of PAL2 and FDC (expressed in yeast, with 69 mg/L styrene detected).

[7] = biological target: T1, FDC1; assay: Kinetic analysis of purified wild type FDC1 (tCA to styrene, HPLC); assay type: biochemical; details: for Km / Vmax: tCA as substrate (100-2000 μM), 0.5 mg purified protein, 5 min at 30° C.
Experimental: The standard reaction mixture for decarboxylation consisted of 25 mM potassium phosphate buffer (pH 6.5) containing 5 mM dithiothreitol, 1.4 mM trans-cinnamic acid and enzyme (0.50 mg) to a final volume of 1.0 mL. The reaction was started by the addition of the enzyme and was incubated at 30° C. for 5 min. The reaction was stopped by adding 24 μl of glacial acetic acid (17.4N) after which 2-propanol was added in equal volume to the reaction mixture in order to solubilize the product. The amount of styrene produced was measured by HPLC using a Dionex Ultimate3000 UHPLC equipped with an auto sampler, diode array (UV/Vis) detector, and reverse phase Acclaim 120 C18 column (2.1×150 […] Dionex USA). Samples (10 μl) were injected for analyses at a total constant flow rate of 0.6 ml/minute. The samples were resolved in 0.15% acetic acid (A) with an increasing concentration gradient of acetonitrile containing 0.15% acetic acid (B) for 0 to 4 min, 5%; 4 to 5 minutes, 5 to 40%; 5 to 7 min, 40 to 45%; 7 to 8 min, 45 to 85%; 8 to 12 min, 85 to 95%; 12 to 14 minutes, 95 to 5% at a flow rate of […]. The specific activity was expressed in U (nmol styrene)·mg^−1·min^−1.
To examine the catalytic efficiency of this protein, kinetic studies of FDC1 was conducted using tCA as the substrate. […] The reactions were performed in a total of 1.0 mL standard reaction mixture with 0.5 mg purified protein, and were allowed to proceed for 5 min at 30° C. The styrene was extracted with 250 μL butanol. The experimental negative control used the same conditions except the reaction mixture contained no substrate. Activities were quantified by standard assay method. Duplicate assays were performed and averaged. The Vmax and Km were determined by nonlinear regression analysis of the velocity-concentration data fit to the Michaelis-Menten equation.

[8] = system: styrene production; assay: Styrene production by wild type FDC1 in anaerobic versus aerobic condition; assay type: cell-based
Experimental: Production of styrene by maintaining the culture in an aerobic environment was conducted. […] Using the STRATA-X® column, we can trap the volatile styrene and can maintain aerobic conditions.

## O=C(O)C=Cc1ccccc1O [2-hydroxycinnamic acid]
[1]
  activity compared with that of tCA (relative activity): did not show any activity

## Cc1ccccc1C=CC(=O)O [2-methylcinnamic acid]
[1]
  activity compared with that of tCA (relative activity): 35%

## COc1ccc(C=CC(=O)O)cc1OC [3,4-dimethoxycinnamic acid]
[1]
  activity compared with that of tCA (relative activity): did not show any activity

## O=C(O)C=Cc1cccc(O)c1 [3-hydroxycinnamic acid]
[1]
  activity compared with that of tCA (relative activity): did not show any activity

## O=C(O)C=Cc1ccc(O)cc1 [4-hydroxycinnamic acid]
[1]
  activity compared with that of tCA (relative activity): 68%

## [Ca+2].[Cl-].[Cl-] [Ca^2+, CaCl2]
[2]
  effect of metal ions on FDC1 activity: increased the activity of FDC1

## [Cl][Fe]([Cl])[Cl] [Fe^3+, FeCl3]
[2]
  effect of metal ions on FDC1 activity: increased the activity of FDC1

## O=S(=O)([O-])[O-].[Mg+2] [Mg^2+, MgSO4]
[2]
  effect of metal ions on FDC1 activity: increased the activity of FDC1

## O=S(=O)([O-])[O-].[Zn+2] [Zn^2+, ZnSO4]
[2]
  effect of metal ions on FDC1 activity: increased the activity of FDC1

## COc1cc(/C=C/C(=O)O)ccc1O [ferulic acid]
[1]
  activity compared with that of tCA (relative activity): 57%

## O=C(O)/C=C/c1ccccc1 [t-cinnamic acid, trans-cinnamic acid]
[1]
  activity compared with that of tCA (relative activity): 100%

## ABC-transporter: solvent-resistant efflux pump srpABC cloned from P. putida, subunits srpA, srpB, srpC
[3]
  styrene production with ABC-transporter compared to control without: significantly increased; also recorded: enhanced nearly four times

B1: FDC1: Saccharomyces cerevisiae cinnamic acid decarboxylase, also termed ferulic acid decarboxylase; 503 amino acids, SEQ ID NO:8 (protein, listed as Saccharomyces cerevisiae)
chain: T1 sequence (Q03034 1-503)
[4]; after incubation at 50° C. for about 2 hours
  activity retained: 100%
[4]; crude extract incubated at 50° C. for 2 hr
  stability at 50° C. over time: stable
[4]; incubated 30 minutes at 50° C. prior to reaction
  temperature stability: stable
[4]; incubated at 50° C. for 30 minutes prior to the reaction
  relative activity after incubation at 50° C.: 100%
[5]
  relative activity after incubation at pH 6.0: 100%
[6]
  styrene in medium: 95 mg/L
[7]; tCA as substrate
  catalytic efficiency: 8.4 M^−1 S^−1
[7]; listed as wild type FDC
  Km: ~688 µM
  Vmax: about 6.17 nmol·mg^−1·min^−1
[7]; listed as wild type FDC1
  Km: 688 µM
  Vmax: 6.17 nmol/mg/min
[8]
  amount of styrene in anaerobic condition compared to aerobic condition: half the amount of styrene
